This passage reports IC50 and Kd results from patent publication US6855705B1, “11-O-methylgeldanamycin compounds” (Kosan Biosciences, Inc., priority 2003, dated 2005).

The test system of one assay is CCRF-CEM/VP-16. Put plainly: Cytotoxicity, CCRF-CEM/VP-16. The following applies: Homo sapiens, read-out: Compound Cytotoxicity (IC50, nM).
The next assay has as its system SKBr3 cells. Nature of the assay: Cytotoxicity against SKBr3 cells (CellTiter-Glo, 72 h). The following applies: Homo sapiens, SK-BR-3, 72 h, read-out: Cytotoxicity against SKBr3 Cells (IC50, nM). A general note: In ATP-based viability assays light output follows the ATP content of the culture.
Another assay has as its system SKOV-3. Nature of the assay: Cytotoxicity, SKOV-3. To be noted: Homo sapiens, SK-OV-3, read-out: Compound Cytotoxicity (IC50, nM).
The subject of another assay is MCF-7. Nature of the assay: Cytotoxicity, MCF-7. To be noted: Homo sapiens, MCF7, read-out: Compound Cytotoxicity (IC50, nM).
For a further assay, the target named is Hsp90 (Homo sapiens, UniProt P07900). Nature of the assay: Hsp90 binding (filter binding assay).
The test system of the next assay is CCRF-CEM. Nature of the assay: Cytotoxicity, CCRF-CEM. The following applies: Homo sapiens, read-out: Compound Cytotoxicity (IC50, nM).
The next assay has as its system CCRF-CEM/VBL. Put plainly: Cytotoxicity, CCRF-CEM/VBL. To be noted: Homo sapiens, read-out: Compound Cytotoxicity (IC50, nM).
For a further assay, the system named is HL-60/MX2. Nature of the assay: Cytotoxicity, HL-60/MX2. To be noted: Homo sapiens, HL60/MX2, read-out: Compound Cytotoxicity (IC50, nM).
The test system of the next assay is A-549. Put plainly: Cytotoxicity, A-549. The following applies: Homo sapiens, A549, read-out: Compound Cytotoxicity (IC50, nM).
The subject of the next assay is CCRF-CEM/taxol. Nature of the assay: Cytotoxicity, CCRF-CEM/taxol. To be noted: Homo sapiens, read-out: Compound Cytotoxicity (IC50, nM).
Where [1] appears, read: filter binding assay, read-out: Hsp90 Binding (Kd).

Like-named read-outs stand apart in the source and are kept apart here. Bounds are passed on as bounds.

Procedure for SKBr3 cells: Cytotoxicity was determined with SKBr3 cells (ATCC HTB-30), a breast cancer cell line. […] Cells were plated into 96-well microtiter back plates at 4,000 cells per 50 μL per well, overnight. Serial 10× dilutions of test compound (10 μM to 0.1 μM) in cell culture media were prepared with a Biomek 2000 apparatus, using the protocols of deeper-1000 μL, media and deeper-1000 μL-dilution. 50 μL of each dilution was added to wells containing cells. Each compound or control (medium only) was tested in duplicate. For each assay, the wells contained a final volume of 100 μL (50 μL of cells and 50 μL of compound dilution). After incubating for 72 h, the plates were let stand at room temperature for 30 min. CellTiter-Glo Luminescent Reagent (Promega #G7573) (100 μL) was added to each well. The well contents were mixed for 5 min and the plates were kept at room temperature for another 30 min. Luminescence was recorded using a Wallac VICTOR^2 Multilabel Counter (PerkinElmer) and IC50 values were determined using Kaleidagraph software (Synergy Software).

As to `CO[C@H]1[C@@H](OC)C[C@H](C)CC2=C(NCCN3CCC3)C(=O)C=C(NC(=O)/C(C)=C/C=C\[C@H](OC)[C@@H](OC(N)=O)/C(C)=C/[C@@H]1C)C2=O` [Compound I-i, 11-O-methyl-17-(2-(1-azetidinyl)ethyl)amino 17-demethoxy-geldanamycin], the IC50 (in general, the concentration that gives 50% inhibition) turned out to be 140 nM in the assay with CCRF-CEM/VP-16; 130 nM in the assay on SKBr3 cells; 65 nM in the assay on SKOV-3; 51 nM with MCF-7; 85 nM in the assay with CCRF-CEM; 2500 nM with CCRF-CEM/VBL. Besides, the half-inhibitory concentration (IC50) in the assay with HL-60/MX2 is 110 nM; with A-549, 26 nM; with CCRF-CEM/taxol it was 510 nM. Further, the dissociation constant Kd – broadly, a measure of binding affinity in units of concentration – on Hsp90 (setting [1]) stood at 960 nM.

On to `COC1=C2C[C@@H](C)C[C@H](OC)[C@H](OC)[C@@H](C)/C=C(\C)[C@H](OC(N)=O)[C@@H](OC)/C=C\C=C(/C)C(=O)NC(=CC1=O)C2=O` [Compound I-e, 11-O-methyl-geldanamycin], for which the IC50 with SKBr3 cells came to 9.1 nM. Besides, the Kd on Hsp90 (setting [1]) was 490 nM.

Consider `CO[C@H]1[C@@H](OC)C[C@H](C)CC2=C(NCCc3c[nH]cn3)C(=O)C=C(NC(=O)/C(C)=C/C=C\[C@H](OC)[C@@H](OC(N)=O)/C(C)=C/[C@@H]1C)C2=O` [Compound I-h, 11-O-methyl-17-(2-(4-imidazolyl)ethyl)amino-17-demethoxy-geldanamycin], for which the IC50 was 2500 nM in the assay on CCRF-CEM/VP-16; 60 nM in the assay with SKBr3 cells; 320 nM in the assay with SKOV-3; 160 nM in the assay with MCF-7; 510 nM in the assay with CCRF-CEM; more than 5000 nM in the assay with CCRF-CEM/VBL. Besides, the concentration for half-maximal inhibition (IC50) with HL-60/MX2 was determined as 2500 nM; in the assay with A-549, 420 nM; with CCRF-CEM/taxol it was 3000 nM. Also, at Hsp90 (setting [1]), the equilibrium dissociation constant (Kd) came to 2000 nM.

In the case of `CO[C@H]1[C@@H](OC)C[C@H](C)CC2=C(N3CCC3)C(=O)C=C(NC(=O)/C(C)=C/C=C\[C@H](OC)[C@@H](OC(N)=O)/C(C)=C/[C@@H]1C)C2=O` [Compound I-a, 11-O-methyl-17-(1-azetidinyl)-17-demethoxygeldanamycin], the concentration for half-maximal inhibition (IC50) with CCRF-CEM/VP-16 was determined as 1400 nM; with SKBr3 cells, 24 nM; in the assay with SKOV-3, 110 nM; with MCF-7 it was 63 nM; with CCRF-CEM, 420 nM; in the assay on CCRF-CEM/VBL, 2500 nM. Also, the IC50 in the assay with HL-60/MX2 came to 600 nM; in the assay on A-549 it was 29 nM; in the assay with CCRF-CEM/taxol, 2500 nM. The molecule also showed a Kd at Hsp90 of 4000 nM.

For the molecule `C=CCNC1=C2C[C@@H](C)C[C@H](OC)[C@H](OC)[C@@H](C)/C=C(\C)[C@H](OC(N)=O)[C@@H](OC)/C=C\C=C(/C)C(=O)NC(=CC1=O)C2=O` [Compound I-g, 11-O-methyl-17-allylamino-17-demethoxygeldanamycin], the IC50 with CCRF-CEM/VP-16 is 4000 nM; with SKBr3 cells it was 280 nM; in the assay on SKOV-3, 1300 nM; in the assay on MCF-7 it was 760 nM; in the assay with CCRF-CEM, 2500 nM; with CCRF-CEM/VBL, more than 5000 nM. The 50% inhibitory concentration (IC50) in the assay with HL-60/MX2 was found to be 3000 nM; in the assay on A-549, 360 nM; in the assay with CCRF-CEM/taxol, 3500 nM. Further, on Hsp90 (setting [1]), the Kd is 2800 nM.

Turning to `CO[C@H]1[C@@H](OC)C[C@H](C)CC2=C(N)C(=O)C=C(NC(=O)/C(C)=C/C=C\[C@H](OC)[C@@H](OC(N)=O)/C(C)=C/[C@@H]1C)C2=O` [Compound I-f], the IC50 in the assay with CCRF-CEM/VP-16 worked out at 530 nM; with SKBr3 cells it was 84 nM; in the assay on SKOV-3, 200 nM; in the assay with MCF-7, 350 nM; with CCRF-CEM, 250 nM; in the assay with CCRF-CEM/VBL, 2500 nM. Besides, the IC50 in the assay with HL-60/MX2 was found to be 930 nM; in the assay on A-549, 37 nM; in the assay with CCRF-CEM/taxol, 850 nM. Also, the dissociation constant Kd on Hsp90 (setting [1]) came out at 320 nM.

Take `CO[C@H]1[C@@H](OC)C[C@H](C)CC2=C(NCCN(C)C)C(=O)C=C(NC(=O)/C(C)=C/C=C\[C@H](OC)[C@@H](OC(N)=O)/C(C)=C/[C@@H]1C)C2=O` [Compound I-b, 11-O-methyl-17-(2-dimethylaminoethyl)amino-17-demethoxy-geldanamycin]: the 50% inhibitory concentration (IC50) with CCRF-CEM/VP-16 amounted to 65 nM; in the assay with SKBr3 cells, 12 nM; in the assay with SKOV-3, 43 nM; in the assay on MCF-7, 50 nM; in the assay on CCRF-CEM, 58 nM; in the assay on CCRF-CEM/VBL, 960 nM. In addition, the values for the IC50 in the assay with HL-60/MX2, in the assay with A-549 and in the assay with CCRF-CEM/taxol were 62 nM, 23 nM and 390 nM, respectively. The Kd at Hsp90 (setting [1]) came to 800 nM.

Turning to `CO[C@H]1[C@@H](OC)C[C@H](C)CC2=C(NCCN3CC3)C(=O)C=C(NC(=O)/C(C)=C/C=C\[C@H](OC)[C@@H](OC(N)=O)/C(C)=C/[C@@H]1C)C2=O` [Compound I-d, 11-O-methyl-17-(2-(1-aziridinyl)ethyl)amino-17-demethoxygelda-namycin], the IC50 in the assay on SKBr3 cells stood at 36 nM. Further, the dissociation constant Kd on Hsp90 came to 2100 nM.

Turning to `CO[C@H]1[C@@H](OC)C[C@H](C)CC2=C(NCCF)C(=O)C=C(NC(=O)/C(C)=C/C=C\[C@H](OC)[C@@H](OC(N)=O)/C(C)=C/[C@@H]1C)C2=O` [Compound I-c, 11-O-methyl-17-(2-fluoroethyl)amino-17-demethoxygeldana-mycin], the half-inhibitory concentration (IC50) amounted to 2500 nM in the assay with CCRF-CEM/VP-16; 250 nM in the assay on SKBr3 cells; 460 nM in the assay on SKOV-3; 58 nM in the assay on MCF-7; 960 nM in the assay with CCRF-CEM; 2500 nM in the assay with CCRF-CEM/VBL. In addition, the results for the half-inhibitory concentration (IC50) in the assay with HL-60/MX2, in the assay on A-549 and in the assay on CCRF-CEM/taxol were 440 nM, 67 nM and 2700 nM, respectively. Besides, the Kd at Hsp90 is 2300 nM.

Take `COC1=C2C[C@@H](C)C[C@H](OC)[C@H](O)[C@@H](C)/C=C(\C)[C@H](OC(N)=O)[C@@H](OC)/C=C\C=C(/C)C(=O)NC(=CC1=O)C2=O` [Geldanamycin]: the IC50 in the assay with SKBr3 cells was found to be 23 nM.

As to `CO[C@H]1[C@@H](OC)C[C@H](C)CC2=C(NCCN3CCCC3)C(=O)C=C(NC(=O)/C(C)=C/C=C\[C@H](OC)[C@@H](OC(N)=O)/C(C)=C/[C@@H]1C)C2=O` [Compound I-j, 11-O-methyl-17-(2-(1-pyrrolidinyl)ethyl)amino-17-demethoxygeldanamycin], the IC50 in the assay on CCRF-CEM/VP-16 turned out to be 170 nM; in the assay with SKBr3 cells, 160 nM; in the assay on SKOV-3 it was 69 nM; in the assay on MCF-7, 76 nM; in the assay on CCRF-CEM, 160 nM; in the assay with CCRF-CEM/VBL it was 2500 nM. Also, the IC50 was 98 nM in the assay on HL-60/MX2, 62 nM in the assay on A-549 and 520 nM in the assay with CCRF-CEM/taxol. Moreover, the Kd on Hsp90 (setting [1]) was determined as 960 nM.
